# US11110105B2, “Compounds, composition and uses thereof for treating cancer” (INSTITUT GUSTAVE ROUSSY, priority 2017, dated 2021)
# Legend:
# [1] = Water solubility; format: physicochemical
# [2] = biological target: spliceosome (SF3B1) (Homo sapiens, UniProt O75533+Q7RTV0); settings: in vivo; cited from earlier work
# spliceosome (SF3B1), sequence (Q7RTV0 whole entry, canonical isoform): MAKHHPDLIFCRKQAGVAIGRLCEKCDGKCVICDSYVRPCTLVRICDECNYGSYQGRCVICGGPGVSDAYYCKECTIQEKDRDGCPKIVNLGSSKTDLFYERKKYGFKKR
# spliceosome (SF3B1), sequence (Q15393 whole entry, further chain, canonical isoform): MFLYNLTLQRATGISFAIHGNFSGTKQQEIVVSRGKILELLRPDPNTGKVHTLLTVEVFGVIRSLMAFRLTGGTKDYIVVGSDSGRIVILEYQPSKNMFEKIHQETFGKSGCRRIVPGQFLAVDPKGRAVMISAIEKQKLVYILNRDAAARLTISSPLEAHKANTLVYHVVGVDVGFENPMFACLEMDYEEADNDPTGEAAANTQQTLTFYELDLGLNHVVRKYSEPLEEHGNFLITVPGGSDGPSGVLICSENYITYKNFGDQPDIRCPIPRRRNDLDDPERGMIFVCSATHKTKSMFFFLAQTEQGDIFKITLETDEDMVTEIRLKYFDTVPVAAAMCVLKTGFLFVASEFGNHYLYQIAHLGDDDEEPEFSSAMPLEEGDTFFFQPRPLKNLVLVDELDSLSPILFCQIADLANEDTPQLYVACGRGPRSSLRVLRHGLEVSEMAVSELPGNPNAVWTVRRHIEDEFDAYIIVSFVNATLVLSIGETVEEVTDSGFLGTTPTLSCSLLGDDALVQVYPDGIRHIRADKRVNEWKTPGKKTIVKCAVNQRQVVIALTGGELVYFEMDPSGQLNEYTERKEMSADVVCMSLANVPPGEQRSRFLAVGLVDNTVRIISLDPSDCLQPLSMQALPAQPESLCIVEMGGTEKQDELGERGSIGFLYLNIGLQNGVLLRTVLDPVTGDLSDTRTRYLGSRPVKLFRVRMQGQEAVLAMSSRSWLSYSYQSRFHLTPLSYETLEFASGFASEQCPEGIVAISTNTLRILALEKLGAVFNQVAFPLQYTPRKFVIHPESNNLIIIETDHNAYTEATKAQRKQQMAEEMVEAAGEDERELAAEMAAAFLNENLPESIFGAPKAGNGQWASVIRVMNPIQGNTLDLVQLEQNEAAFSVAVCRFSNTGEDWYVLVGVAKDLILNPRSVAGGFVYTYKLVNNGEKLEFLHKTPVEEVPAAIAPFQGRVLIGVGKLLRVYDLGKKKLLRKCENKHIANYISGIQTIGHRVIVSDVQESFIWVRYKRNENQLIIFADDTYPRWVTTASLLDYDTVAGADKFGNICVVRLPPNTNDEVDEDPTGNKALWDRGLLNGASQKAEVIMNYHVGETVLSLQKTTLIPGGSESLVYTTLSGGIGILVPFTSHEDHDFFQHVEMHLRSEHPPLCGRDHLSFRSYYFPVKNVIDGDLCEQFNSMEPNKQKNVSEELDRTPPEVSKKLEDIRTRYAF
# spliceosome (SF3B1), sequence (Q9BWJ5 whole entry, further chain, canonical isoform): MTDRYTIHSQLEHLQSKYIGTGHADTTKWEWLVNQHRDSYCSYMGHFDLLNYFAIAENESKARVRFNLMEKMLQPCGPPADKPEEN
# spliceosome (SF3B1), sequence (O75533 whole entry, canonical isoform): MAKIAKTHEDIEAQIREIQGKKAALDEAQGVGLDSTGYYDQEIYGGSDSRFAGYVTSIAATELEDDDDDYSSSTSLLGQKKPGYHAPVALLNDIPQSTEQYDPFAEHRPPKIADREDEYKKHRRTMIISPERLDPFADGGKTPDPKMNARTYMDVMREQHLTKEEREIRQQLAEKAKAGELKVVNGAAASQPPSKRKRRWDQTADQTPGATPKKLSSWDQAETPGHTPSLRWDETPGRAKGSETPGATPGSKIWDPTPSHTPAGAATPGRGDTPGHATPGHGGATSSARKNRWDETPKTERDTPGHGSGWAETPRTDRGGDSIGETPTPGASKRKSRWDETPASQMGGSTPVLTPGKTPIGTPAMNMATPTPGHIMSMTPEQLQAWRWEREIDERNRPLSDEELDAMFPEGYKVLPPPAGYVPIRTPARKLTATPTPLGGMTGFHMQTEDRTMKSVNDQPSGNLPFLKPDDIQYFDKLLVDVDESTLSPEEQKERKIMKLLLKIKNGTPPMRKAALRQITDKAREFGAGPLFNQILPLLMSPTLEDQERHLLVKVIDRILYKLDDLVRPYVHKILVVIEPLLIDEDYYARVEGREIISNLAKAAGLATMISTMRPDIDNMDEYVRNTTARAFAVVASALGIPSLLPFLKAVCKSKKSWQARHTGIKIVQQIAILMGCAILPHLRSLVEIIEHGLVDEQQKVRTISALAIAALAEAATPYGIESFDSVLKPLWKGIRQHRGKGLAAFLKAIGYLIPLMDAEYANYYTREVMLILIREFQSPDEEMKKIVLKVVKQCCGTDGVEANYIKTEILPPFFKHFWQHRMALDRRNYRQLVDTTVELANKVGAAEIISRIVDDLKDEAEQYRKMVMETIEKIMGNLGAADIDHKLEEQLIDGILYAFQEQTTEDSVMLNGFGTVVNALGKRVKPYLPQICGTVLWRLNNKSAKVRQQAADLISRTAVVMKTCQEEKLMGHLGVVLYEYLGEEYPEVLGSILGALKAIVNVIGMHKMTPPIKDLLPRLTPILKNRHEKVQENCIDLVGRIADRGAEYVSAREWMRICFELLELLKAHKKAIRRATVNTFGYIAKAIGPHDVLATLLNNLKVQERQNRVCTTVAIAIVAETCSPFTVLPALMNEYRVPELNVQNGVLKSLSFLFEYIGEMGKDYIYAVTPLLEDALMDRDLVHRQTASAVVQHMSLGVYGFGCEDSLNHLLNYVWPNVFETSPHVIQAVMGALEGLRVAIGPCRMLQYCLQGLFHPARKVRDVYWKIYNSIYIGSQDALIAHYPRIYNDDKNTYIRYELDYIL
SMILES,water solubility [1],outcome of testing in human [2]
COc1ccc(-c2cc(=O)c3c([O-])cc(OP(=O)(O)O)c(-c4cc(-c5cc(=O)c6c([O-])cc(OP(=O)(O)O)cc6o5)ccc4OC)c3o2)cc1.[Na+].[Na+] [Compound 2],considerably higher than that of the parent compound isoginkgetin,–
CC[C@H](O)[C@@H](C)[C@H]1O[C@@H]1C[C@@](C)(O)/C=C/C=C(\C)[C@H]1OC(=O)C[C@H](O)CC[C@@](C)(O)[C@@H](OC(=O)N2CCN(C3CCCCCC3)CC2)/C=C/[C@@H]1C [E7107],–,stopped because of problems of toxicity
